Values quoted from earlier work, collected in patent publication US20080260683A1, “Rodenticide” (priority 2004, published 2008).

Compound | solubility in water
O=c1sc2ccccc2c(O)c1C1CC(c2ccc(-c3ccc(Br)cc3)cc2)Cc2ccccc21 (stereo not shown) [difethialone] | insoluble or weakly soluble in water
O=c1oc2ccccc2c(O)c1C1CC(c2ccc(OCc3ccc(C(F)(F)F)cc3)cc2)Cc2ccccc21 (stereo not shown) [flocoumafen] | insoluble or weakly soluble in water
O=c1oc2ccccc2c(O)c1C(CC(O)c1ccc(-c2ccc(Br)cc2)cc1)c1ccccc1 (stereo not shown) [bromadiolone] | insoluble or weakly soluble in water
O=c1oc2ccccc2c(O)c1C1CC(c2ccc(-c3ccc(Br)cc3)cc2)Cc2ccccc21 (stereo not shown) [Brodifacoum, brodifacoum] | insoluble or weakly soluble in water
